Source: ChEMBL document CHEMBL5096216, “Rational Design, Synthesis, and Biological Evaluation of Novel S1PR2 Antagonists for Reversing 5-FU-Resistance in Colorectal Cancer” (J Med Chem, 2022)
Activity calls are given as the source filed them. The rule behind the calls is not given here.

Columns and labels:
[1] = Metabolic stability in human plasma assessed as compound remaining at 1 mg/ml measured after 48 hrs by HPLC analysis; type: ADME, cell-free; conditions: read-out: Stability
[2] = target: Sphingosine 1-phosphate receptor 2 (Homo sapiens, UniProt O95136); test: Inhibition of FBAL stimulated S1PR2 in human SW620/5-FU cells incubated for 72 hrs by Western blot analysis; type: cell-based; conditions: dose 5-15 µM, DDE = dose-dependent effect
[3] = system: HT-29; test: Downregulation of DPD expression in 5-FU resistant human HT-29 cells incubated for 12 hrs by Western blot analysis; type: functional, cell-based; conditions: dose 2.5-20 µM, DDE = dose-dependent effect
[4] = system: HT-29; test: cells; conditions: Homo sapiens, HT-29, 48 h
Description: Reversal of 5-FU resistance in human HT-29 cells assessed as reduction in 5-Fluorouracil IC50 at 2 uM incubated for 48 hrs (Rvb = 2768.36 +/- 89.25 %)

[5] = Induction of intracellular 5-FU accumulation in human SW620/5-FU cells measured after 6 hrs by HPLC analysis (reference value: 4.3 microg/ml); type: functional
[6] = system: HCT-116; test: cells; conditions: Homo sapiens, HCT-116, 48 h
Description: Reversal of 5-FU resistance in human HCT-116 cells overexpressing DPD assessed as reduction in 5-Fluorouracil IC50 at 2 uM incubated for 48 hrs (Rvb = 1836.66 +/- 87.95 %)

[7] = system: SW620/5-FU; test: Induction of apoptosis in human SW620/5-FU cells assessed as necrotic cells at 10 uM incubated for 24 hrs by Annexin-V/PI staining based flow cytometry assay (reference value: 0%); type: functional
[8] = system: SW620/5-FU; test: Induction of apoptosis in human SW620/5-FU cells assessed as viable cells at 20 uM incubated for 24 hrs by Annexin-V/PI staining based flow cytometry assay (reference value: 94.3%); type: functional; conditions: read-out: Activity
[9] = system: HT-29; test: Upregulation of H3K27me3 expression in 5-FU resistant human HT-29 cells incubated for 12 hrs by Western blot analysis; type: functional, cell-based; conditions: dose 2.5-20 µM, DDE = dose-dependent effect
[10] = system: SW620/5-FU; test: Antitumor activity against human SW620/5-FU cells xenografted in nude mouse assessed as tumor wight at 10 mg/kg/day, iv in presence of 5-FU (reference value: 1.3 +/- 0.6 g); type: functional
[11] = system: Mus musculus; test: In vivo inhibition of tumor DPD expression in human SW620/5-FU cells xenografted in nude mouse at 1 to 10 mg/kg/day by immunohistochemistry analysis; type: functional, organism-based; conditions: dose 1-10 mg/kg/day
[12] = system: SW620/5-FU; test: Antitumor activity against human SW620/5-FU cells xenografted in nude mouse assessed as tumor growth inhibition at 5 mg/kg/day, iv in presence of 5-FU; type: functional; conditions: read-out: TGI
[13] = system: SW620/5-FU; test: Induction of apoptosis in human SW620/5-FU cells assessed as viable cells at 10 uM incubated for 24 hrs by Annexin-V/PI staining based flow cytometry assay (reference value: 94.3%); type: functional; conditions: read-out: Activity
[14] = system: SW620/5-FU; test: Antitumor activity against human SW620/5-FU cells xenografted in nude mouse assessed as tumor volume at 5 mg/kg/day, iv measured on day 1 in presence of 5-FU (reference value: 105 +/- 14 mm3); type: functional; conditions: time 1 day
[15] = Metabolic stability in rat plasma assessed as compound remaining at 1 mg/ml measured after 48 hrs by HPLC analysis; type: ADME, cell-free; conditions: read-out: Stability
[16] = system: SW620/5-FU; test: Induction of apoptosis in human SW620/5-FU cells assessed as viable cells at 10 uM incubated for 24 hrs in presence of 5-FU by Annexin-V/PI staining based flow cytometry assay (reference value: 94.3%); type: functional; conditions: read-out: Activity
[17] = Toxicity in nude mouse xenografted with human SW620/5-FU cells assessed as morphological changes in kidney at 1 to 10 mg/kg/day, iv by hematoxylin-eosin staining based analysis; type: organism-based; conditions: in vivo, dose 1-10 mg/kg/day
[18] = system: SW620/5-FU; test: Downregulation of H3K27me3 expression in human SW620/5-FU cells at 10 uM incubated for 72 hrs by Western blot analysis; type: functional, cell-based
[19] = Toxicity in nude mouse xenografted with human SW620/5-FU cells assessed as morphological changes in spleen at 1 to 10 mg/kg/day, iv by hematoxylin-eosin staining based analysis; type: organism-based; conditions: in vivo, dose 1-10 mg/kg/day
[20] = system: HCT-116; test: cells; conditions: Homo sapiens, HCT-116, 48 h; remark: listed apart in the source
Description: Reversal of 5-FU resistance in human HCT-116 cells overexpressing DPD assessed as reduction in 5-Fluorouracil IC50 at 5 uM incubated for 48 hrs (Rvb = 1836.66 +/- 87.95 %)

[21] = system: SW620/5-FU; test: Antitumor activity against human SW620/5-FU cells xenografted in nude mouse assessed as tumor volume at 10 mg/kg/day, iv measured on day 15 in presence of 5-FU (reference value: 1991 +/- 469 mm3); type: functional; conditions: time 15 day
[22] = Toxicity in nude mouse xenografted with human SW620/5-FU cells assessed as morphological changes in lung at 1 to 10 mg/kg/day, iv by hematoxylin-eosin staining based analysis; type: organism-based; conditions: in vivo, dose 1-10 mg/kg/day
[23] = system: SW620/5-FU; test: Induction of apoptosis in human SW620/5-FU cells assessed as necrotic cells at 20 uM incubated for 24 hrs by Annexin-V/PI staining based flow cytometry assay (reference value: 0%); type: functional
[24] = system: SW620/5-FU; test: Induction of apoptosis in human SW620/5-FU cells assessed as early apoptotic cells at 10 uM incubated for 24 hrs in presence of 5-FU by Annexin-V/PI staining based flow cytometry assay (reference value: 2.73%); type: functional
[25] = system: HT-29; test: Reversal of 5-FU resistance in human HT-29 cells assessed as reduction in cell viability incubated for 48 hrs in presence of 5-FU by MTT assay; type: functional, cell-based; conditions: HT-29, 48 h
[26] = system: SW620/5-FU; test: Antitumor activity against human SW620/5-FU cells xenografted in nude mouse assessed as tumor growth inhibition at 10 mg/kg/day, iv in presence of 5-FU; type: functional; conditions: read-out: TGI
[27] = system: NCM460; test: Cytotoxicity against human NCM460 cells assessed as reduction in cell viability incubated for 48 hrs in presence of 5-FU by MTT assay; type: functional, cell-based; conditions: NCM460, 48 h
[28] = system: SW620/5-FU; test: Induction of apoptosis in human SW620/5-FU cells assessed as late apoptotic cells at 20 uM incubated for 24 hrs by Annexin-V/PI staining based flow cytometry assay (reference value: 2.97%); type: functional
[29] = system: SW620/5-FU; test: Induction of apoptosis in human SW620/5-FU cells assessed as necrotic cells at 20 uM incubated for 24 hrs in presence of 5-FU by Annexin-V/PI staining based flow cytometry assay (reference value: 0%); type: functional
[30] = system: SW620/5-FU; test: Reversal of 5-FU resistance in human SW620/5-FU cells assessed as fold reduction in 5-Fluorouracil IC50 at 2 uM incubated for 48 hrs; type: functional
[31] = Cytotoxicity against human NCM460 cells assessed as reduction in cell viability incubated for 48 hrs by MTT assay; type: toxicity, cell-based
[32] = target: Sphingosine 1-phosphate receptor 5 (Homo sapiens, UniProt Q9H228); test: Binding affinity to S1PR5 (unknown origin) assessed as dissociation constant by surface plasmon resonance analysis
[33] = system: SW620/5-FU; test: Antitumor activity against human SW620/5-FU cells xenografted in nude mouse assessed as tumor growth inhibition at 1 mg/kg/day, iv in presence of 5-FU; type: functional; conditions: read-out: TGI
[34] = system: SW620/5-FU; test: Reversal of 5-FU resistance in human SW620/5-FU cells assessed as fold reduction in 5-Fluorouracil IC50 at 5 uM incubated for 48 hrs; type: functional
[35] = system: HCT-116; test: Reversal of 5-FU resistance in human HCT-116 cells overexpressing DPD assessed as fold reduction in 5-Fluorouracil IC50 at 2 uM incubated for 48 hrs; type: functional
[36] = system: HT-29; test: Reversal of 5-FU resistance in human HT-29 cells assessed as fold reduction in 5-Fluorouracil IC50 at 5 uM incubated for 48 hrs; type: functional

Sphingosine 1-phosphate receptor 5, sequence (Q9H228 whole entry): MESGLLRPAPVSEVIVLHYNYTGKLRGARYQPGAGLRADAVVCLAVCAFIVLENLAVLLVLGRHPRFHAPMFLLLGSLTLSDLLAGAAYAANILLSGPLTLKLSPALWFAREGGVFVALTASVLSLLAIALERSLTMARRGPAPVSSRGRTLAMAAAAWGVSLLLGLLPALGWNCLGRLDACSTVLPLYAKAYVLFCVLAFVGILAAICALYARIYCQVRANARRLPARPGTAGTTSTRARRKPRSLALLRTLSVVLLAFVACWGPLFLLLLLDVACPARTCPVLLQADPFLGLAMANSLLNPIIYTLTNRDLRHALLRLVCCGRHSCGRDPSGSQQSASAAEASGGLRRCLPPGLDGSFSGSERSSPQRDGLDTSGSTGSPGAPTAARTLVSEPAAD
Sphingosine 1-phosphate receptor 2, sequence (O95136 whole entry): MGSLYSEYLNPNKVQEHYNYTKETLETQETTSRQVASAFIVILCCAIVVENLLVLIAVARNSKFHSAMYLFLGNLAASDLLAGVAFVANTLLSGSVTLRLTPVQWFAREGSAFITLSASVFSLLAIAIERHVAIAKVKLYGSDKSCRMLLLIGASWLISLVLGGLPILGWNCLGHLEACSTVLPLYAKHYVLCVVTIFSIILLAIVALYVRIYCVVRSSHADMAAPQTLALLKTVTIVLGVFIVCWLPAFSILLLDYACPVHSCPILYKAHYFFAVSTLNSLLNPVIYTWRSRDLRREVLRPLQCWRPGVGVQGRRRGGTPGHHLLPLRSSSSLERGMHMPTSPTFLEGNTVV

remaining at 48 h, 1 mg/ml [1]: 96.4%
inhibition [2]: Dde
IC50 [4]: 42.1 µM
IC50 [6]: 56.4 µM
remaining at 48 h, 1 mg/ml [15]: 93%
IC50 [20]: 45.1 µM
IC50 [25]: 2.51 µM
Kd [32]: > 0.1 µM
Structure (SMILES): CCC(CC)CN1CCN(C(=O)Nc2cc(Oc3ccc(F)cc3)cc(Oc3ccc(C(=O)NC)cc3)c2)CC1
Activity [3]: Dde
Activity [5]: 12.2 µg/mL
Activity [7]: 0.042%
viability at 20 µM [8]: 92.1%
Activity [9]: Dde
Activity [10]: 0.3 g
inhibition [11]: Active
inhibition in vivo at 5 mg/kg/day [12]: 66.8%
viability at 10 µM [13]: 93.8%
Activity [14]: 103 mm3
viability at 10 µM [16]: 87.7%
Activity [17]: Non-Toxic
Activity [18]: Active
Activity [19]: Non-Toxic
Activity [21]: 521 mm3
Activity [22]: Non-Toxic
Activity [23]: 0.086%
Activity [24]: 4.41%
inhibition in vivo at 10 mg/kg/day [26]: 73.8%
IC50 [27]: > 100 µM
Activity [28]: 4.01%
Activity [29]: 0.076%
fold change (FC) [30]: 42
IC50 at 48 hrs [31]: > 100 µM
inhibition in vivo at 1 mg/kg/day [33]: 49.5%
fold change (FC) [34]: 88
fold change (FC) [35]: 33
fold change (FC) [36]: 127
